Experimental data taken from patent US20080299177A1, “Supramolecular Complexes for Use in Acoustically Mediated Intracellular Drug Delivery in vivo” (Biovaluation & Analysis, Inc., priority 2007, published 2008).

Key:
[1] = tested on: Mammalian Cells; assay: Ultrasound-mediated intracellular calcein delivery and cell viability (flow cytometry); type: cell-based; conditions: calcein released from supramolecular complexes, with contrast agent
Description: (§1) Ultrasound. Ultrasonic energy is produced using an immersible, focused, piezoceramic transducer. In this experimental system, two different matching resistance networks are necessary, allowing production of sound at 1.0 MHz and 3.0 MHz, similar to a method known in the art (Guzmán et al., 2001a, 2001b, 2002, and 2003; and Schlicher et al., 2006). A sinusoidal waveform is produced by, for example, programmable waveform generators (Stanford Research Instruments, Sunnyvale, Calif.) used in conjunction to control pulse length, frequency, and peak-to-peak voltage. The sinusoidal waveform is amplified by an RF broadband power amplifier (Electronic Navigation Industries, Rochester, N.Y.) before passing through a matching network and controlling the response of the transducer. The transducer is housed in a polycarbonate tank (FIG. 12 [601]) 34.5×32×40 cm; containing approximately 34 liters of deionized, distilled, and partially degassed water at room temperature (i.e., 22° C. to 23° C.). A thick acoustic absorber is mounted opposite the transducer to minimize standing-wave formation (not illustrated). A three-axis micropositioning system (10 μm resolution; Velmex, Bloomfield, N.Y.) is mounted on top of the tank to position samples and a hydrophone at desired locations in the tank. A PVDF membrane hydrophone (NTR Systems, Seattle, Wash.) is used to measure spatial-peak-temporal-peak negative pressure and to map and calibrate the acoustic field produced by the transducer versus the peak-to-peak voltage signal provided by a function generator.
Preparation of Nanocarriers (Supramolecular Complexes) and Samples. Before Ultrasound exposure, supramolecular complexes are prepared encapsulating calcein (i.e., 15 μM initial solution) by using a procedure of Examples 1 and 2. Samples are prepared at a cell concentration of 10^6 cells/ml, supramolecular complexes containing calcein, and the ultrasound contrast agent Optison® at concentrations of 0.30% v/v (˜1.6×10^6 bubble/ml), 1.8% v/v (˜1.1×10^7 bubble/ml), and 15.0% v/v (˜9.3×10^7 bubble/ml). Optison® is an ultrasound contrast agent, a suspension of perfluorcarbon gas bubbles stabilized with denatured human albumin that is used to serve primarily as nuclei to promote acoustic cavitation activity in sonicated samples. The product name “Optison®” may hereafter be referred to as “contrast agent” or “ultrasound contrast agent.”
Before every experiment, the desired placement of the supramolecular complex and cell samples in the acoustic field is found using the PVDF membrane hydrophone (FIG. 12 [604]). This location is approximately 1 cm and 0.5 cm out of the ultrasound's focus toward the transducer (601) (for 1.1 MHz and 3.1 MHz, respectively). The acoustic pressure is calibrated versus the peak-to-peak voltage of the signal created by the function generator, using the PVDF membrane hydrophone (604) at the desired location. These out-of-focus locations have a broader acoustic beam than at the focus, approximately 10.4-mm and 2.4-mm wide at half-amplitude (i.e., −6 dB) for 1.1 MHz and 3.1 MHz, respectively. […]
Samples are placed within chambers (605) constructed from a cylindrical bulb of polyethylene with an approximate dimension of 1.4 cm in height and 0.6 cm in diameter. […] A metal rod (606) is immediately inserted into the open end of the sample chamber and then attached to the three-axis positioning system (603), placing the sample in the desired location as determined by the hydrophone (604). […]

[2] = tested on: Henrietta Lacks (HeLa) cells; assay: Ultrasound-mediated intracellular calcein delivery and cell viability in HeLa cells (flow cytometry); type: cell-based; conditions: HeLa cells compared with AoSMC cells; 1.1 MHz and 3.1 MHz; FIGS. 14A-14D
Description: as §1, with “A PVDF membrane hydrophone (NTR Systems, Seattle, Wash.) is used to measure spatial-peak-temporal-peak negative pressure and to map and calibrate the acoustic field produced by the transducer versus the peak-to-peak voltage signal provided by a function generator.” left out

O=C(O)CN(CC(=O)O)Cc1cc2c(cc1O)Oc1cc(O)c(CN(CC(=O)O)CC(=O)O)cc1C21OC(=O)c2ccccc21 [calcein]
calcein uptake ([1]; mild ultrasound conditions): low levels
cell death ([1]; mild ultrasound conditions): almost no cell death
calcein uptake (fraction of cells) ([1]; moderate ultrasound conditions): one-third
cell death ([1]; moderate ultrasound conditions): some cell death
cell death ([1]; strong ultrasound conditions): kill almost all insonated cells
cell death [2]: lower levels of death
uptake [2]: greater uptake
